Marks after values point to notes of the source that are not given here.
Legend:
[1] = test system: type 2 diabetic mouse (db/db) model; experiment: Reduction of HbA1c in db/db type 2 diabetic mice after chronic treatment (HbA1c, insulin, triglycerides, food consumption, body weight); type: in vivo; conditions: for Cumulative Food Consumption Day 0-28 / Insulin / Triglycerides / Δ% HbA1c vs. DC / Body Weight (%) Day 28 vs. Baseline: db/db mice
Protocol: This study was performed in a type 2 diabetic mouse (db/db) model. […] All the treatments were injected subcutaneously every third day for 10 doses (q3d*10). % HbA1c, Insulin, Triglycerides levels were measured on Day 0, day 14 and day 28. Cumulative food intake from day 0-28 and % Change in body weight compared to day 0 was calculated on day 28.

GLP-1R = molecular target: T1, GLP-1R (Homo sapiens, UniProt P43220); experiment: cAMP assay (cAMP Hunter eXpress GPCR Assay) on GLP-1R-expressing cells; type: cell-based; conditions: read-out: half-maximal effective concentration, cellular cAMP
T1 construct: host or cells: GLP-1R-expressing cells of the cAMP Hunter eXpress GPCR Assay kit
T1 sequence (P43220 24-463): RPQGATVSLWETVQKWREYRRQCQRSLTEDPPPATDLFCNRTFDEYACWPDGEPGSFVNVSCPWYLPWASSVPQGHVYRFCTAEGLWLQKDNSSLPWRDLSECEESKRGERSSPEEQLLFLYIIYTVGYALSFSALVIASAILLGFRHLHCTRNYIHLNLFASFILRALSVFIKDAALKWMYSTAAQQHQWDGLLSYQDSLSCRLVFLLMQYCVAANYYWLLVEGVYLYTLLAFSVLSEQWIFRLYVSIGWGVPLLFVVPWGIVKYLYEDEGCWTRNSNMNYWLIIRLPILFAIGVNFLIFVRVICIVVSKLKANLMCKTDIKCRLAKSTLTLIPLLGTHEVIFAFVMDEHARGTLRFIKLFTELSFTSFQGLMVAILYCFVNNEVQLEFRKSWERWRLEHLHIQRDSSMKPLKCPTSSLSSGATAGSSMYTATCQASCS
Protocol: (§1) In-vitro potency determination was performed using cAMP assay. G protein coupled receptor (GPCR) activation following ligand binding initiates a series of second messenger cascades that results in a cellular response. Signaling by the GLP-1R and GIP-R involves activation of adenylate cyclase and cAMP production. Cellular cAMP production was determined using the cAMP Hunter™ eXpress GPCR Assay (Eurofins DiscoveRx).

GIPR = molecular target: T2, GIPR (Homo sapiens, UniProt P48546); experiment: cAMP assay (cAMP Hunter eXpress GPCR Assay) on GIPR-expressing cells; type: cell-based; conditions: read-out: half-maximal effective concentration, cellular cAMP
T2 construct: host or cells: GIPR-expressing cells of the cAMP Hunter eXpress GPCR Assay kit
T2 sequence (P48546 22-466): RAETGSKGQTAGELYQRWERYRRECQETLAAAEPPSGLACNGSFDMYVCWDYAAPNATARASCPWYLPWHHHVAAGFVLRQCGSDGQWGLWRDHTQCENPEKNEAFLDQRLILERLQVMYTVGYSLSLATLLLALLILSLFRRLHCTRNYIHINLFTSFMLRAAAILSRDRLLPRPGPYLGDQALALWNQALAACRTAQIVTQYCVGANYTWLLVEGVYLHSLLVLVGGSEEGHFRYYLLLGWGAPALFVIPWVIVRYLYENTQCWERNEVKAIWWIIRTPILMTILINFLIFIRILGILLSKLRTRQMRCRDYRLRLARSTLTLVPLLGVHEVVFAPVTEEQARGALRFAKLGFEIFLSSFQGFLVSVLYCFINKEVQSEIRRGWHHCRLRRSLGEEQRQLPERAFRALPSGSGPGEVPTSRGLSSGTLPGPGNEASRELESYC
Protocol: as §1

[2] = test system: type 2 diabetic mouse (db/db) model; experiment: Reduction in blood glucose and effect on body weight and food intake, single dose, db/db mice (Tables 4, 5); type: in vivo
Protocol: The effect of Compounds of present invention on blood glucose was studied on mice. This study was performed in a type 2 diabetic mouse (db/db) model. […] Baseline blood glucose was measured from all the animals. All animals were administered with its respective test item subcutaneously. […] Delta blood glucose (mM) was calculated. Similarly body weight changes and cumulative food consumption was measured at 96 hr post treatment.

[3] = test system: type 2 diabetic mouse (db/db) model; experiment: Effect of Compound 2 and 7 on blood glucose, body weight and food consumption in mice, up to 72 hr (Tables 6, 7); type: in vivo; conditions: 10 nM/kg
Protocol: Similarly body weight changes and cumulative food consumption was measured at 72 hr post treatment.

[4] = test system: type 2 diabetic mouse (db/db) model; experiment: Effect on blood glucose, food intake and body weight, single s.c. dose 10 nM/kg, db/db mice (Tables 8, 9); type: in vivo; conditions: 10 nM/kg/s.c/single dose
Protocol: This study was performed in a type 2 diabetic mouse (db/db) model. […] Baseline blood glucose was measured from all the animals. All the animals were administered with test items subcutaneously. Blood glucose was measured at 4 hr, 12 hr, 24 hr, 48 hr, 72 hr and 96 hr post treatment. Delta blood glucose (mM) was calculated. Body weight changes and cumulative food consumption was measured at 96 hr post treatment. Similarly the effect of Compounds 11-15 on blood glucose, food intake and body weight was studied in a separate study except for Compound 13. The results are shown in Table 8 (effect on blood glucose) and Table 9 (effect on body weight and food consumption).

[5] = test system: type 2 diabetic mouse (db/db) model; experiment: Reduction of HbA1c in db/db type 2 diabetic mice after chronic treatment (HbA1c, insulin, triglycerides, food consumption, body weight); type: in vivo; conditions: 9 nM/kg and 18 nM/kg dose
[6] = 6 nM/kg s.c., separate study n = 5

Structure (SMILES): CC[C@H](C)[C@H](NC(=O)[C@H](CC(C)C)NC(=O)[C@H](Cc1c[nH]c2ccccc12)NC(=O)[C@H](CCC(N)=O)NC(=O)[C@@H](NC(=O)[C@H](Cc1ccccc1)NC(=O)[C@H](C)NC(=O)[C@H](CCCCNC(=O)COCCOCCNC(=O)C(C)(C)NC(=O)CC[C@H](NC(=O)CCCCCCCCCCCCCCCCCCC(=O)O)C(=O)O)NC(=O)[C@H](CCC(N)=O)NC(=O)[C@H](C)NC(=O)[C@@H](NC(=O)[C@H](CCCCN)NC(=O)[C@H](CC(=O)O)NC(=O)[C@H](CC(C)C)NC(=O)C(C)(C)NC(=O)[C@@H](NC(=O)[C@H](CO)NC(=O)[C@H](Cc1ccc(O)cc1)NC(=O)[C@H](CC(=O)O)NC(=O)[C@H](CO)NC(=O)[C@@H](NC(=O)[C@H](Cc1ccccc1)NC(=O)[C@@H](NC(=O)CNC(=O)[C@H](CCC(=O)O)NC(=O)C(C)(C)NC(=O)[C@@H](N)Cc1ccc(O)cc1)[C@@H](C)O)[C@@H](C)O)[C@@H](C)CC)[C@@H](C)CC)C(C)C)C(=O)N[C@@H](C)C(=O)NCC(=O)NCC(=O)N1CCC[C@H]1C(=O)N[C@@H](CO)C(=O)N[C@@H](CO)C(=O)NCC(=O)N[C@@H](C)C(=O)N1CCC[C@H]1C(=O)N1CCC[C@H]1C(=O)N1CCC[C@H]1C(=O)N[C@@H](CO)C(N)=O [Compound 2]
- insulin levels compared to the diabetic control group (in words) ([1]; 9 nM/kg, day 14): statistically significant increase in insulin levels
- triglycerides compared to the diabetic control group (in words) ([1]; 4.5, 9 and 18 nM/kg): statistically significant lowering of triglycerides
- change in HbA1c compared to the diabetic control (in words) ([1]; 4.5, 9 and 18 nM/kg, day 14 and 28th day): statistically significant change in HbA1c
- body weight compared to the diabetic control group (in words) ([1]; 4.5, 9 and 18 nM/kg, day 28): statistically significant decrease in body weight
- cumulative food consumption compared to the diabetic control group (in words) ([1]; 4.5, 9 and 18 nm/kg, course of the study): statistically significant reduction in cumulative food consumption
- Cumulative Food Consumption Day 0-28 ([1]; 4.5 nM/kg s.c. q3d*10): 112.4
- Cumulative Food Consumption Day 0-28 ([1]; 9 nM/kg s.c. q3d*10): 111.8
- Cumulative Food Consumption Day 0-28 ([1]; 18 nM/kg s.c. q3d*10): 89.5
- Insulin ([1]; Day 14, 4.5 nM/kg s.c. q3d*10): 34.75 ng/mL
- Triglycerides ([1]; Day 14, 4.5 nM/kg s.c. q3d*10): 218.7 mg/dL
- Δ% HbA1c vs. DC ([1]; Day 14, 4.5 nM/kg s.c. q3d*10): −2.43*** %
- Insulin ([1]; Day 14, 9 nM/kg s.c. q3d*10): 69.63 ng/mL
- Triglycerides ([1]; Day 14, 9 nM/kg s.c. q3d*10): 169.8 mg/dL
- Δ% HbA1c vs. DC ([1]; Day 14, 9 nM/kg s.c. q3d*10): −2.90*** %
- Insulin ([1]; Day 14, 18 nM/kg s.c. q3d*10): 75.09 ng/mL
- Triglycerides ([1]; Day 14, 18 nM/kg s.c. q3d*10): 172.4 mg/dL
- Δ% HbA1c vs. DC ([1]; Day 14, 18 nM/kg s.c. q3d*10): −3.04*** %
- Body Weight (%) Day 28 vs. Baseline ([1]; Day 28, 4.5 nM/kg s.c. q3d*10): −7.0%
- Insulin ([1]; Day 28, 4.5 nM/kg s.c. q3d*10): 33.44 ng/mL
- Triglycerides ([1]; Day 28, 4.5 nM/kg s.c. q3d*10): 208.9 mg/dL
- Δ% HbA1c vs. DC ([1]; Day 28, 4.5 nM/kg s.c. q3d*10): −3.64*** %
- Body Weight (%) Day 28 vs. Baseline ([1]; Day 28, 9 nM/kg s.c. q3d*10): −8.9%
- Insulin ([1]; Day 28, 9 nM/kg s.c. q3d*10): 53.87 ng/mL
- Triglycerides ([1]; Day 28, 9 nM/kg s.c. q3d*10): 147.4 mg/dL
- Δ% HbA1c vs. DC ([1]; Day 28, 9 nM/kg s.c. q3d*10): −4.19*** %
- Body Weight (%) Day 28 vs. Baseline ([1]; Day 28, 18 nM/kg s.c. q3d*10): −9.3%
- Insulin ([1]; Day 28, 18 nM/kg s.c. q3d*10): 76.93 ng/mL
- Triglycerides ([1]; Day 28, 18 nM/kg s.c. q3d*10): 144.3 mg/dL
- Δ% HbA1c vs. DC ([1]; Day 28, 18 nM/kg s.c. q3d*10): −4.25*** %
- EC50 (GLP-1R): 4.1 nM
- EC50 (GIPR): 2.3 nM
- Cumulative Food Intake (g) 0-96 hr, Mean ([2]; 3 nM/kg s.c., n = 6 study): 14.6*** g
- Body Weight Change (%) 96 hr., Mean ([2]; 3 nM/kg s.c., n = 6 study): −5*** %
- Cumulative Food Intake (g) 0-96 hr, Mean [2, 6]: 18.2 g
- Body Weight Change (%) 96 hr., Mean [2, 6]: −0.9%
- Delta Blood Glucose (mM), Mean ([2]; 4 hr post treatment, @ 3 nM s.c., n = 6 study): -12.6 mM
- Delta Blood Glucose (mM), Mean ([2]; 4 hr post treatment, @ 6 nM s.c., separate study n = 5): −14.4*** mM
- Delta Blood Glucose (mM), Mean ([2]; 12 hr post treatment, @ 3 nM s.c., n = 6 study): -10.6 mM
- Delta Blood Glucose (mM), Mean ([2]; 12 hr post treatment, @ 6 nM s.c., separate study n = 5): −18.0*** mM
- Delta Blood Glucose (mM), Mean ([2]; 24 hr post treatment, @ 3 nM s.c., n = 6 study): -8.3 mM
- Delta Blood Glucose (mM), Mean ([2]; 24 hr post treatment, @ 6 nM s.c., separate study n = 5): −16.9*** mM
- Delta Blood Glucose (mM), Mean ([2]; 48 hr post treatment, @ 3 nM s.c., n = 6 study): -7.3 mM
- Delta Blood Glucose (mM), Mean ([2]; 48 hr post treatment, @ 6 nM s.c., separate study n = 5): −8.9*** mM
- Delta Blood Glucose (mM), Mean ([2]; 72 hr post treatment, @ 3 nM s.c., n = 6 study): -4.7 mM
- Delta Blood Glucose (mM), Mean ([2]; 72 hr post treatment, @ 6 nM s.c., separate study n = 5): 0.1 mM
- Delta Blood Glucose (mM), Mean ([2]; 96 hr post treatment, @ 3 nM s.c., n = 6 study): -0.3 mM
- Delta Blood Glucose (mM), Mean ([2]; 96 hr post treatment, @ 6 nM s.c., separate study n = 5): 2.1 mM
- time for which efficacy on blood glucose was maintained [3]: 72 h
- % Body wt. change 72 hr. vs. 0 hr., Mean ([3]; mice, n = 8): −7.2*** %
- Cumulative Food Consumption (0-72 hr) (g), Mean ([3]; mice, n = 8): 8.4*** g
- Delta Blood Glucose (mM), Mean ([3]; 4 hr post treatment, mice, n = 8): -15.6 mM
- Delta Blood Glucose (mM), Mean ([3]; 8 hr post treatment, mice, n = 8): -16.3 mM
- Delta Blood Glucose (mM), Mean ([3]; 12 hr post treatment, mice, n = 8): -16.0 mM
- Delta Blood Glucose (mM), Mean ([3]; 24 hr post treatment, mice, n = 8): -14.6 mM
- Delta Blood Glucose (mM), Mean ([3]; 72 hr post treatment, mice, n = 8): -4.1 mM
- Delta Blood Glucose (mM), Mean ([4]; 0 hr (baseline)): 0.0 mM
- Body Wt. Change (%) 96 hr. vs. Baseline, Mean [4]: −4.2*** %
- Cumulative food Intake (g) 96 hr. vs. Baseline, Mean [4]: 12.3*** g
- blood glucose reduction post treatment (in words) [4]: statistically significant blood glucose reduction
- Delta Blood Glucose (mM), Mean ([4]; 4 hr post treatment): −13.1*** mM
- Delta Blood Glucose (mM), Mean ([4]; 12 hr post treatment): −11.7*** mM
- Delta Blood Glucose (mM), Mean ([4]; 24 hr post treatment): −8.2*** mM
- Delta Blood Glucose (mM), Mean ([4]; 48 hr post treatment): −6.0** mM
- Delta Blood Glucose (mM), Mean ([4]; 72 hr post treatment): -2.8 mM
- Delta Blood Glucose (mM), Mean ([4]; 96 hr post treatment): 0.6 mM
- reduction in HbA1c on day 29 more than the reduction on day 14 [5]: more than 40%

— patent publication US20230241178A1, “LONG ACTING GLP-1/GIP DUAL AGONISTS” (SUN PHARMACEUTICAL INDUSTRIES LIMITED, priority 2020, published 2023)
